Like-named read-outs stand apart in the source and are kept apart here.
Columns and labels:
caudal artery = experiment: Test for anti-calcic activity in vitro, isolated caudal artery of the rat (contraction induced by calcium chloride); assay type: cell-based; conditions: caudal artery rings of Wistar rats, depolarizing solution KCl 100 mM, CaCl2 2.5 mM, phentolamine 10^-5 M, 37° C., read-out: IC50 (concentration which inhibited by 50% the contraction induced by calcium chloride)
Procedure: Isolated caudal artery of the rat.
When the contractile responses became reproducible, the test product was added in increasing concentrations 15 minutes before each contraction.

mouse = experiment: Acute toxicity, oral, mouse; assay type: in vivo
Procedure: The lethal doses LD0 of the various compounds tested were evaluated after oral administration to a mouse. […]

blood-platelets = experiment: Blood-platelet aggregation, in vitro, on plasma rich in blood-platelets (PRP); assay type: cell-based; conditions: Oryctolagus cuniculus, 2 min, rabbit PRP, 2 minutes incubation
Description: 3) Test for the Activity of Anti-Aggregation of Blood-Platelets. Blood-Platelet Aggregation, in Vitro, on Plasma Rich in Blood-Platelets (PRP)
Measurement of blood-platelet aggregation was made according to the turbidimetric method of Born et al 1963, J. Physiol., Vol. 168, p. 178. Rabbit's blood was removed on Na citrate at 3.2% of cardiac puncture and the plasma rich in blood-platelets was obtained by centrifuging and adjustment of the number of blood-platelets to […]. The aggregation was induced by collagen (40 micrograms per ml of PRP) or PAF acether (0.05 micromoles per liter of PRP). The test compounds were incubated at different concentrations in the PRP 2 minutes before the aggregating agent. The results are expressed in IC50 (concentration inhibiting the aggregation by 50% relative to the control curves).

[1] = tested on: ventricular extrasystoles; experiment: Anti-arhythmic action in the rat (aconitine-induced ventricular extrasystoles); assay type: in vivo; conditions: read-out: Percentage of protection (percentage increase in the aconitine dose necessary to initiate the ventricular extrasystoles); for change in vivo at 5 mg/kg / change in vivo at 1 mg/kg: iv; for change in vivo at 25 mg/kg: po, 1 h
Procedure: Male rats weighing 300-350 g, anaesthetized by intraperitoneal route with 1.20 g/kg of urethane, were tracheotomized and subjectd to artificial respiration (40-50 insufflations of 3 ml/minute). Needles were implanted under the skin to record the electrocardiogram of the rats on reception of the DII signal. The test products were administered intravenously or orally. After five minutes in the case of intravenous administration and one hour in the case of oral administration, the jugular vein of the rats was perfused with 10 micrograms/minutes under 0.21 ml of an aconitine solution and the time taken for the first ventricular extrasystoles to appear was noted. The amount of aconitine perfused was calculated, then expressed as a function of the body weight of the animal.
The percentage increase in the aconitine dose necessary to initiate the ventricular extrasystoles after treatment was calculated relative to the control animals.

[2] = PAF acether 0.05 micromoles per liter of PRP, read-out: IC50, induction by PAF ACETHER (concentration inhibiting the aggregation by 50%)
[3] = collagen 40 micrograms per ml of PRP, read-out: IC50, induction by COLLAGEN (concentration inhibiting the aggregation by 50%)

Compound | IC50 (caudal artery) [µM] | LD0 (maximum dose which did not cause any deaths over 8 days) (mouse) [mg/kg] | IC50 (blood-platelets; [2]) [µM] | IC50 (blood-platelets; [3]) [µM] | change in vivo at 5 mg/kg [1] [%] | change in vivo at 25 mg/kg [1] [%] | change in vivo at 1 mg/kg [1] [%]
CC(C)(C)NCCCOc1ccc(C(=O)c2cccc3[nH]ccc23)cc1 [Example 1, [4-[3-[(1,1-dimethyl-ethyl)-amino]-propoxy]-phenyl]-(1H-indol-4-yl)-methanone] | 0.46 | – | – | – | – | – | –
CC(C)(C)NCC(O)COc1ccccc1Cc1cccc2[nH]ccc12 (stereo not drawn) [Example 5, 1-[(1,1-dimethyl-ethyl)-amino]-3-[2-[(1H-indol-4-yl)-methyl]-phenoxy]-2-propanol] | 2 | > 200 | 42 | 18 | – | – | –
CC(C)(C)NCC(O)COc1ccccc1C(O)c1cccc2[nH]ccc12 (single isomer, unassigned; isomer b) [Example 9, α-[2-[3-[(1,1-dimethylethyl)-amino]-2-hydroxy-propoxy]-phenyl]-1H-indole-4-methanol benzoate (Isomer B)] | – | > 200 | – | – | > 165 | 91 | –
Cn1ccc2c(C(O)c3ccccc3OCCCNC(C)(C)C)cccc21 (racemic) [Example 13, (±) α-[2-[3-[(1,1-dimethylethyl)-amino]-propoxy]-phenyl-1-methyl-1H-indol-4-methanol] | – | – | 70 | 60 | 140 | – | –
C=C(c1ccccc1OCC(O)CNC(C)(C)C)c1cccc2[nH]ccc12 (racemic) [Example 22, (±) 3-[(1,1-dimethylethyl)-amino]-[2-[1-(1H-indol-4-yl)-ethenyl]-phenoxy]-2-propanol] | 3.8 | 200 | 14 | 9 | 84 | 33 | –
CC(C)(C)NCCCOc1ccccc1Cc1cccc2[nH]ccc12 [Example 6, N-(1,1-dimethylethyl)-3-[2-[(1H-indol-4-yl)-methyl]-phenoxy]-propanamine benzoate] | 0.4 | – | 37 | 14 | – | – | –
CON=C(c1ccccc1OCC(O)CNC(C)(C)C)c1cccc2[nH]ccc12 (racemic) [Example 25, (±) O-methyloxime of [2-[3-[(2,2-dimethylethyl)-amino]-2-hydroxypropoxy]-phenyl]-(1H-indol-4-yl) methanone] | – | – | – | – | 186 | – | –
CC(C)(C)NCC(O)COc1ccc(C(=O)c2cccc3[nH]ccc23)cc1 (stereo not drawn) [Example 2, [4-[3-[(1,1-dimethyl ethyl)-amino]-2-hydroxypropoxy]-phenyl]-(1H-indol-4-yl)-methanone] | 1.9 | – | – | – | 93 | 82 | –
CC(C)N(CC(O)COc1ccccc1C(=O)c1cccc2[nH]ccc12)C(C)C (racemic) [Example 18, (±) [2-[3-[[bis-1-methylethyl)-amino]-2-hydroxy-propoxy]-phenyl]-(1H-indol-4-yl) methanone] | 7.2 | – | – | – | 135 | – | –
CC(C)(C)NCC(O)COc1ccccc1C(=O)c1cccc2[nH]ccc12 (stereo not drawn) [Example 4, [2-[3-[(1,1-dimethyl ethyl)-amino]-2-hydroxypropoxy]-phenyl]-(1H-indol-4-yl)-methanone] | 6.2 | – | 55 | 9.5 | > 217 | 73 | –
CC(C)(C)NCCCOc1ccccc1C(=O)c1cccc2[nH]ccc12.O=C(O)c1ccccc1 [Example 3, [2-[3-[(1,1-dimethyl ethyl)-amino]-propoxy]-phenyl]-(1H-indol-4-yl)-methanone benzoate] | 1.9 | 100 | 47 | 31 | 202 | 52 | –
CC(C)(C)NCC(O)COc1ccccc1C(O)c1cccc2[nH]ccc12 (single isomer, unassigned) [Example 8, α-[2-[3-[(1,1-dimethylethyl)-amino]-2-hydroxy-propoxy]-phenyl]-1H-indole-4-methanol benzoate] | – | > 200 | – | – | – | – | –
Cn1ccc2c(C(=O)c3ccccc3OCC(O)CNC(C)(C)C)cccc21 (racemic) [Example 10, (±)[2-[3-[(1,1-dimethylethyl)-amino]-2-hydroxy-propoxy]-phenyl]-(1-methyl-1H-indol-4-yl) methanone] | – | – | 70 | 21 | – | 124 | 133
CN1CCN(CC(O)COc2ccccc2C(=O)c2cccc3[nH]ccc23)CC1 (racemic) [Example 19, (±) [2-[2-hydroxy-3-(4-methyl-1-piperazinyl)-propoxy]-phenyl]-(1H-indol-4-yl) methanone] | – | – | – | – | 142 | – | –
Cn1ccc2c(C(=O)c3ccccc3OCCCNC(C)(C)C)cccc21 [Example 12, [2-[3-[(1,1-dimethylethyl)-amino]-propoxy]-phenyl]-(1-methyl-1H-indol-4-yl)methanone] | 4.8 | – | 40 | 40 | – | – | 99
CC(C)(C)NCCOc1ccccc1C(=O)c1cccc2[nH]ccc12 [Example 16, [2-[2-[(1,1-dimethylethyl)-amino]-ethoxy]-phenyl]-(1H-indol-4-yl)-methanone] | 1.1 | – | 100 | 57 | – | – | –
C=C(c1ccccc1OCCCNC(C)(C)C)c1cccc2[nH]ccc12 [Example 24] | 3.1 | – | 14 | 8 | – | – | –
O=C(c1ccccc1OCC(O)CNC1CCCCC1)c1cccc2[nH]ccc12 (racemic) [Example 21, (±) [2-[(3-cyclohexylamino)-2-hydroxylpropoxy]-phenyl]-(1H-indol-4-yl) methanone] | – | – | – | – | 124 | – | –
CC(C)(C)NCC(O)COc1ccccc1C(=O)c1cccc2c1CC(=O)N2 (stereo not drawn) [Example 15, 1,3-dihydro-4-[2-[3-[(1,1-dimethylethyl)-amino]-2-hydroxy-propoxy]-benzoyl]-2H-indol-2-one] | – | > 200 | – | – | – | – | –
CC(c1ccccc1OCC(O)CNC(C)(C)C)c1cccc2[nH]ccc12 (racemic) [Example 23, (±) 3-[(1,1-dimethylethyl)-amino]-1-[2-[1-(1H-indol-4-yl)-ethyl]-phenoxy]-2-propanol] | 4.7 | – | 25 | 8 | 88 | – | –
CC(C)(C)NCCCOc1ccccc1C(O)c1cccc2[nH]ccc12 (stereo not drawn) [Example 7, α-[2-[3-[(1,1-dimethylethyl)-amino]-propoxy]-phenyl]-1H-indol-4-methanol benzoate] | – | 100 | – | – | > 201 | – | –
Cn1ccc2c(Cc3ccccc3OCC(O)CNC(C)(C)C)cccc21 (racemic) [Example 11, (±) 1-[(1,1-dimethylethyl)-amino]-3-[2-[(1-methyl-1H-indol-4-yl)-methyl]-phenoxy]-2-propanol] | 3 | – | 24 | 10 | 257 | 81 | –

— patent publication US5086070A, “4-benzyl-1H-indoles and anti-arrthymic use thereof” (Roussel Uclaf, priority 1989, dated 1992)
